Key:
[1] = Plasma versus brain concentration after subcutaneous administration in mice; conditions: mouse, in vivo
Procedure: The concentration of selected compounds in plasma (FIG. 8A) versus concentration in brain (FIG. 8A) was assessed after administration in a mice. Briefly, mice are administered with selected compounds via subcutaneous route. Thirty minutes after the compound administration, plasma and brain samples are collected. Concentrations of the selected compounds in plasma and brains are determined by LC/MS/MS.

[2] = tested on: Transgenic mice expressing amyloid beta protein precursor (APP); assay: Morris water maze in transgenic mice expressing amyloid beta protein precursor (APP); type: in vivo; conditions: 10 mg/kg subcutaneous, chronic
Procedure: Mice are tested in a large water tank (178 cm in diameter; 22.0±1.5° C.) with a submerged 17 cm diameter circular platform (˜1 cm below the water surface and ˜50 cm away from the wall). Non-toxic tempera paints (Elmers) are used to make the water opaque. Privacy blinds with four different visual cues surrounded the tank and are located ˜150 cm from the center of the tank. Testing is performed under dim white light (40 Lux at the water surface). Activity is monitored with Ethovision via an overhead video system. Mice complete 4-6 days of hidden platform training (60 seconds to locate the platform when released from a pseudorandomized drop location). […] Successful leaming of MWM is determined by reduced escape latency and discriminative quadrant exploration during the probe trial. […]
Transgenic mice expressing amyloid beta protein precursor (APP) and wild-type mice were chronically administered with KSN01-01-18 (10 mg/kg, subcutaneous). Changes on body weight were recorded. Effects of KSN01-01-18 on cognitive function were evaluated in Morris water maze (MWM). […] Successful learning of MWM was determined by the gradual decrease in escape latency during the hidden platform training and discriminative quadrant exploration and latency to reach virtual platform during the probe trial.

C57BI/6J female mice = assay: 24 day administration, lung and heart weight and fibrosis; type: in vivo; conditions: 10 mg/kg for 24 days
Procedure: C57BI/6J female mice were administered with isoproterenol, KSN01-01-15, or KSN01-01-18 at 10 mg/kg for 24 days. After 24 days of treatment, mice were sacrificed, and lung and heart weight were measured. Hearts were then fixed in 10% formalin, and stained with Masson trichrome for evaluation of fibrosis.

[3] = Body weight changes on chronic administration in mice; type: in vivo; conditions: 10 mg/kg subcutaneous
Procedure: Transgenic mice expressing amyloid beta protein precursor (APP) and wild-type mice were chronically administered with KSN01-01-18 (10 mg/kg, subcutaneous). Changes on body weight were recorded. Effects of KSN01-01-18 on cognitive function were evaluated in Morris water maze (MWM). Briefly, In the MWM, a large water tank (178 cm in diameter) filled with water was used. A circular platform was placed about 1 cm below the water surface approximately 17 cm away from the wall in one 20 quadrant of the tank. Nontoxic tempera paints were used to make the water opaque. During the consecutive days of hidden platform training, mice were released from drop locations and given 60 sec to find the platform. Upon completion of the hidden platform training, the platform was removed and a 60-sec probe trial was conducted. Successful learning of MWM was determined by the gradual decrease in escape latency during the hidden platform training and discriminative quadrant exploration and latency to reach virtual platform during the probe trial.

Cc1n[nH]c2cccc(OC[C@@H](O)CNCCNC(=O)N3CCOCC3)c12 [Compound 38]
crossing the blood brain barrier [1]: not capable of crossing the blood brain barrier

Cc1n[nH]c2cccc(OC[C@@H](O)CNCc3ccn(C)n3)c12 [Compound 92]
cognitive function in Morris water maze (time to find the virtual platform) [2]: cognitive enhancing effects
fibrotic changes in heart and heart weight (C57BI/6J female mice): did not induce these changes
fibrotic changes in lung and lung weight (C57BI/6J female mice): did not induce these changes
morphological changes in heart (C57BI/6J female mice): did not induce these changes
general toxicity as measured by changes in body weight [3]: does not cause general toxicity
